Experimental data from patent US9643973B1, “Crystalline form of diclosulam, a process for its preparation and use of the same” (Rotam Agrochem International Company Limited, priority 2016, dated 2017).
Read-outs that look alike come from different tables or passages of the source.

Columns and labels:
[1] = type: physicochemical; details: for Concentration measured by HPLC after treatment: pH 7 buffer, 20° C.
Method: A stock pH 7 buffer solution was prepared by adding aqueous sodium hydroxide solution (0.1 M, 145 mL) to aqueous potassium dihydrogen phosphate solution (0.1 M, 250 mL), and then adding sufficient distilled water to adjust the final volume to 500 mL. At least 1 time and up to about 5 times the amount of diclosulam needed for saturation was added to a mixing vessel containing stock buffer solution at the test temperature (e.g., 20° C.). The mixture was magnetically stirred in the dark while being maintained at the test temperature and the samples were intermittently and periodically removed for analysis. The samples were centrifuged using a high speed, temperature-controlled centrifuge at the test temperature for about 20 minutes at ≧12000 G to remove suspended particles. An aliquot of each supernatant was taken for analysis. The concentration of diclosulam in the supernatant was determined by a high pressure liquid chromatography (HPLC) with a reversed phase chromatography column and UV detection. The method should include development of best-fit calibration curves based on at least three standards using linear regression analysis Samples were successively withdrawn from the mixing vessel and analyzed until three successive samples show little or no variation in concentration. The test is preferably replicated to ensure accuracy.

[2] = Viscosity (stated in words, no method given); type: physicochemical
[3] = OD formulation, original concentration 40%
[4] = SG formulation, original concentration 25%
[5] = WG formulation, original concentration 25%

SMILES	Concentration measured by HPLC after treatment [1, 3] [%]	Concentration measured by HPLC after treatment [1, 4] [%]	Concentration measured by HPLC after treatment [1, 5] [%]	Viscosity (in words) ([2]; listed as diclosulam in amorphous state)	Solubility (in words) [1]	Viscosity (in words) ([2]; listed as crystalline modification I of diclosulam)
CCOc1nc(F)cc2nc(S(=O)(=O)Nc3c(Cl)cccc3Cl)nn12 [Amorphous diclosulam, 2′,6′-dichloro-5-ethoxy-7-fluoro[1,2,4]triazolo[1,5-c]pyrimidine-2-sulfonanilide, reference compound]	14	15	12	highly viscous		
CCOc1nc(F)cc2nc(S(=O)(=O)Nc3c(Cl)cccc3Cl)nn12 [Diclosulam, crystalline modification I, 2′,6′-dichloro-5-ethoxy-7-fluoro[1,2,4]triazolo[1,5-c]pyrimidine-2-sulfonanilide]	35	24.9	23		significant increase	significant decrease
